In patent publication USRE39591E1, “6-O-substituted ketolides having antibacterial activity” (Abbott Laboratories, priority 1996, dated 2007):
Values after ≈ are worked out from the molar mass of the structure shown.

Test system: up to 32 different microorganisms
Assay: in vitro antibacterial activity (MIC), agar dilution on Brain Heart Infusion (BHI) agar with Steers replicator
Assay type: cell-based
Conditions: unit assumed
In short: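 Up to 32 strains were replicator-inoculated (1:100, or 1:10 for Micrococcus and Streptococcus) onto BHI agar plates holding serial compound dilutions and kept 20-24 h at 35-37° C. Plates were read visually against drug-free growth controls, with erythromycin A run alongside; MIC was the lowest concentration giving no growth, slight haze or sparse colonies.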

[1] = Candida albicans CCH 442 (code TT)
[2] = Enterococcus faecism ATCC 8043 (code II)
[3] = Escherichia coli DC-2 (code SS)
[4] = Escherichia coli JUHL (code QQ)
[5] = Micrococcus luteus ATCC 4698 (code PP)
[6] = Micrococcus luteus ATCC 9341 (code OO)
[7] = Mycobacterium smegmatis ATCC 114 (code UU)
[8] = Nocardia Asteroides ATCC9970 (code VV)
[9] = Staphylococcus aureus 1775 (code GG)
[10] = Staphylococcus aureus A5177 (code BB)
[11] = Staphylococcus aureus A-5278 (code CC)
[12] = Staphylococcus aureus ATCC 6538P (code AA)
[13] = Staphylococcus aureus CMX 553 (code FF)
[14] = Staphylococcus aureus CMX 642A (code DD)
[15] = Staphylococcus aureus NCTC10649M (code EE)
[16] = Staphylococcus epidermidis 3519 (code HH)
[17] = Streptococcus agalactiae CMX 508 (code KK)
[18] = Streptococcus bovis A-5169 (code JJ)
[19] = Streptococcus pyogenes 930 (code MM)
[20] = Streptococcus pyogenes EES61 (code LL)
[21] = Streptococcus pyogenes PIU 2548 (code NN)
[22] = Haemophilis influenzae DILL AMP R (code WW)
[23] = Streptococcus Pneumonia 5649 (code ZZA)
[24] = Streptococcus Pneumonia 5979 (code ZZ)
[25] = Streptococcus Pneumonia ATCC6303 (code XX)
[26] = Streptococcus Pneumonia GYR 1171 (code YY)

CC[C@H]1OC(=O)[C@H](C)C(=O)[C@H](C)[C@@H](O[C@@H]2O[C@H](C)C[C@H](N(C)C)[C@H]2O)[C@@](C)(OCCN)C[C@@H](C)C(=O)[C@H](C)[C@@H](O)[C@]1(C)O [Example 8, Compound of Formula (VIII): X is O, R is —CH2CH2NH2]
MIC [1]: > 100 µg/mL | MIC [2]: 6.2 µg/mL | MIC [3]: > 100 µg/mL | MIC [4]: > 100 µg/mL | MIC (Escherichia coli SS (code RR)): 6.2 µg/mL | MIC [5]: 12.5 µg/mL | MIC [6]: 6.2 µg/mL | MIC [7]: > 100 µg/mL | MIC [8]: 12.5 µg/mL | MIC [9]: > 100 µg/mL | MIC [10]: 25 µg/mL | MIC [11]: > 100 µg/mL | MIC [12]: 25 µg/mL | MIC [13]: 50 µg/mL | MIC [14]: 6.2 µg/mL | MIC [15]: 6.2 µg/mL | MIC [16]: 100 µg/mL | MIC [17]: 6.2 µg/mL | MIC [18]: 3.1 µg/mL | MIC [19]: > 100 µg/mL | MIC [20]: 6.2 µg/mL | MIC [21]: 12.5 µg/mL

CCC1OC(=O)C(C)C(=O)C(C)C(OC2OC(C)CC(N(C)C)C2O)C(C)(OCC=Cc2ccc3ccccc3c2)CC(C)C(=O)C(C)C2NC(=O)OC12C (stereo not shown) [Example 186, R is —CH2CH═CH-(2-naphthyl)]
MIC [1]: > 100 µg/mL | MIC [2]: 0.05 µg/mL (≈ 0.0654 µM) | MIC [3]: > 100 µg/mL | MIC [4]: > 100 µg/mL | MIC (Escherichia coli SS (code RR)): 0.39 µg/mL (≈ 0.51 µM) | MIC [22]: 16 µg/mL (≈ 20.9 µM) | MIC [5]: 0.1 µg/mL (≈ 0.131 µM) | MIC [6]: < 0.005 µg/mL | MIC [7]: 0.2 µg/mL (≈ 0.261 µM) | MIC [8]: 0.1 µg/mL (≈ 0.131 µM) | MIC [9]: > 100 µg/mL | MIC [10]: 0.01 µg/mL (≈ 0.0131 µM) | MIC [11]: > 100 µg/mL | MIC [12]: 0.1 µg/mL (≈ 0.131 µM) | MIC [13]: 0.01 µg/mL (≈ 0.0131 µM) | MIC [14]: 0.1 µg/mL (≈ 0.131 µM) | MIC [15]: 0.1 µg/mL (≈ 0.131 µM) | MIC [16]: 0.1 µg/mL (≈ 0.131 µM) | MIC [23]: 1 µg/mL (≈ 1.31 µM) | MIC [24]: > 128 µg/mL | MIC [25]: 0.03 µg/mL (≈ 0.0392 µM) | MIC [26]: 0.015 µg/mL (≈ 0.0196 µM) | MIC [17]: 0.01 µg/mL (≈ 0.0131 µM) | MIC [18]: ≤ 0.005 µg/mL | MIC [19]: 3.1 µg/mL (≈ 4.05 µM) | MIC [20]: 0.01 µg/mL (≈ 0.0131 µM) | MIC [21]: 0.1 µg/mL (≈ 0.131 µM)

CCC1OC(=O)C(C)C(=O)C(C)C(OC2OC(C)CC(N(C)C)C2O)C(C)(OCC#CC=Cc2ccccc2)CC(C)C(=O)C(C)C2NC(=O)OC12C (stereo not shown) [Example 291, Compound of Formula (IX): L is CO, T is NH, R is —CH2C≡C-(2-phenylethenyl)]
MIC (organism code AA): 0.05 µg/mL | MIC (organism code BB): 0.05 µg/mL | MIC (organism code CC): > 100 µg/mL | MIC (organism code DD): 0.05 µg/mL | MIC (organism code EE): 0.05 µg/mL | MIC (organism code FF): 0.05 µg/mL | MIC (organism code GG): > 100 µg/mL | MIC (organism code HH): 0.05 µg/mL | MIC (organism code II): 0.02 µg/mL | MIC (organism code JJ): ≤ 0.005 µg/mL | MIC (organism code KK): ≤ 0.005 µg/mL | MIC (organism code LL): ≤ 0.005 µg/mL | MIC (organism code MM): 3.1 µg/mL | MIC (organism code NN): 0.1 µg/mL | MIC (organism code OO): ≤ 0.005 µg/mL | MIC (organism code PP): 0.05 µg/mL | MIC (organism code QQ): 25 µg/mL | MIC (organism code RR): 0.1 µg/mL | MIC (organism code SS): 50 µg/mL | MIC (organism code TT): > 100 µg/mL | MIC (organism code UU): 0.39 µg/mL | MIC (organism code VV): 0.01 µg/mL | MIC (organism code WW): 2 µg/mL | MIC (organism code XX): ≤ 0.004 µg/mL | MIC (organism code YY): ≤ 0.004 µg/mL | MIC (organism code ZZ): 1 µg/mL | MIC (organism code ZZA): 0.125 µg/mL

CC[C@H]1OC(=O)[C@H](C)C(=O)[C@H](C)[C@@H](O[C@@H]2O[C@H](C)C[C@H](N(C)C)[C@H]2O)[C@@](C)(OCCNCCCc2ccccc2)C[C@@H](C)C(=O)[C@H](C)[C@H]2NC(=O)O[C@@]21C [Example 223, Compound of Formula (IX): L is CO, T is NH, R is —CH2CH2NHCH2CH2CH2Phenyl]
MIC (organism code AA): 0.2 µg/mL | MIC (organism code BB): 0.1 µg/mL | MIC (organism code CC): > 100 µg/mL | MIC (organism code DD): 0.2 µg/mL | MIC (organism code EE): 0.2 µg/mL | MIC (organism code FF): 0.2 µg/mL | MIC (organism code GG): > 100 µg/mL | MIC (organism code HH): 0.39 µg/mL | MIC (organism code II): 0.05 µg/mL | MIC (organism code JJ): ≤ 0.005 µg/mL | MIC (organism code KK): ≤ 0.005 µg/mL | MIC (organism code LL): ≤ 0.005 µg/mL | MIC (organism code MM): > 100 µg/mL | MIC (organism code NN): 0.1 µg/mL | MIC (organism code OO): 0.05 µg/mL | MIC (organism code PP): 0.2 µg/mL | MIC (organism code QQ): 50 µg/mL | MIC (organism code RR): 0.2 µg/mL | MIC (organism code SS): 100 µg/mL | MIC (organism code TT): > 100 µg/mL | MIC (organism code UU): 3.1 µg/mL | MIC (organism code VV): 0.2 µg/mL | MIC (organism code WW): 4 µg/mL | MIC (organism code XX): 0.03 µg/mL | MIC (organism code YY): 0.03 µg/mL | MIC (organism code ZZ): > 128 µg/mL | MIC (organism code ZZA): 0.5 µg/mL

CCC1OC(=O)C(C)C(=O)C(C)C(OC2OC(C)CC(N(C)C)C2O)C(C)(OCC=Cc2cccc3cccnc23)CC(C)C(=O)C(C)C2NC(=O)OC12C (stereo not shown) [Example 189, R is —CH2CH-(8-quinolyl)]
MIC [1]: > 100 µg/mL | MIC [2]: 0.05 µg/mL (≈ 0.0653 µM) | MIC [3]: 50 µg/mL (≈ 65.3 µM) | MIC [4]: 100 µg/mL (≈ 131 µM) | MIC (Escherichia coli SS (code RR)): 0.39 µg/mL (≈ 0.509 µM) | MIC [22]: 8 µg/mL (≈ 10.4 µM) | MIC [5]: 0.1 µg/mL (≈ 0.131 µM) | MIC [6]: 0.02 µg/mL (≈ 0.0261 µM) | MIC [7]: 0.78 µg/mL (≈ 1.02 µM) | MIC [8]: 0.05 µg/mL (≈ 0.0653 µM) | MIC [9]: > 100 µg/mL | MIC [10]: 0.1 µg/mL (≈ 0.131 µM) | MIC [11]: > 100 µg/mL | MIC [12]: 0.2 µg/mL (≈ 0.261 µM) | MIC [13]: 0.1 µg/mL (≈ 0.131 µM) | MIC [14]: 0.2 µg/mL (≈ 0.261 µM) | MIC [15]: 0.1 µg/mL (≈ 0.131 µM) | MIC [16]: 0.2 µg/mL (≈ 0.261 µM) | MIC [23]: 0.5 µg/mL (≈ 0.653 µM) | MIC [24]: > 32 µg/mL | MIC [25]: 0.125 µg/mL (≈ 0.163 µM) | MIC [26]: 0.06 µg/mL (≈ 0.0783 µM) | MIC [17]: ≤ 0.005 µg/mL | MIC [18]: ≤ 0.005 µg/mL | MIC [19]: 50 µg/mL (≈ 65.3 µM) | MIC [20]: ≤ 0.005 µg/mL | MIC [21]: 0.2 µg/mL (≈ 0.261 µM)
